Source: patent publication US20240058457A1, “BTK DEGRADER” (Newave Pharmaceutical Inc., priority 2020, published 2024)

biological target: T1, BTK (Homo sapiens, UniProt Q06187); test: BTK HTRF degradation assay; format: cell-based; conditions: treatment time 24 h; Cisbio Total-BTK HTRF; Rec-1 / Ramos cells
T1 construct: endogenous in cells; host or cells: Rec-1 cells (ATCC) / Ramos cells
Description: Rec-1 cells were obtained from American Type Culture Collection and were grown in RPMI-1640 media (ATCC, 30-2001) supplemented with 10% heat-inactivated FBS (Corning Premium Fetal Bovine Serum from Fisher, MT35015CV). Compounds of the present invention were added to 50,000 Ramos cells in round-bottom 96 well plates with a final DMSO concentration of […] and were incubated at 37° C. 5% CO2 for different time. BTK levels were determined using Cisbio Total-BTK HTRF ([…] Time-Resolved Fluorescence) kit (63ADK064PEG) according to manufacturer's protocol. Briefly, cells were incubated in 1× supplied lysis buffer for 30 minutes. In an opaque white low volume 96 well plate (Cisbio, 66PL96005), cell lysate was combined with two different specific BTK antibodies, one conjugated with Eu3+-Cryptate FRET donor and one conjugated with d2 FRET acceptor. Assay controls include wells containing cell lysate with only the Eu3+-Cryptate FRET donor antibody and wells containing both HTRF antibodies and lysis buffer without cells or control lysate provided by Cisbio. HTRF ratio was calculated as (acceptor signal at 665 nm/donor signal at 620 nm)×[…]. Background HTRF levels were determined from the control well containing the donor, but no acceptor, antibody. Background HTRF levels were subtracted from all samples. Readouts were reported as HTRF levels relative to HTRF levels of DMSO-treated cells. Four-parameter non-linear regressions were performed in GraphPad Prism 7.02 to obtain DC50 values.

T1 sequence (Q06187 whole entry): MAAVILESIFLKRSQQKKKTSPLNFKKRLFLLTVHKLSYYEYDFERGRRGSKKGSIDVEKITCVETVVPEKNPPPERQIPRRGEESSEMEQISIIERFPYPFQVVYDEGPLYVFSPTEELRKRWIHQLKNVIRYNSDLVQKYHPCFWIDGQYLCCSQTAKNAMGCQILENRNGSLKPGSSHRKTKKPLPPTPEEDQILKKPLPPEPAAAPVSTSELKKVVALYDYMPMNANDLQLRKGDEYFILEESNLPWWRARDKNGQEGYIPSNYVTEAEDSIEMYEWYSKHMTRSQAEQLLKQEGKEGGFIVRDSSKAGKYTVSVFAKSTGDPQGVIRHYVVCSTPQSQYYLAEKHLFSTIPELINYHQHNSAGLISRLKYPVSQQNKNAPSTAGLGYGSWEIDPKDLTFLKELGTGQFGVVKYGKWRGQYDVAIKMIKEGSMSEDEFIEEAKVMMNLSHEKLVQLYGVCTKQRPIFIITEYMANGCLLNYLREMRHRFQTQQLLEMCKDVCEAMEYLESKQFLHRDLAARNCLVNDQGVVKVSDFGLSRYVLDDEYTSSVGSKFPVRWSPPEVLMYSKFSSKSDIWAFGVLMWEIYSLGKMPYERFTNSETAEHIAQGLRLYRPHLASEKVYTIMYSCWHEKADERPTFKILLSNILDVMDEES

Molecule | DC50 [nM] | Dmax % [%] | Dmax [%]
5-{4-[(3S)-4-{6-[(6-tert-butyl-2′. {4,4-dimethyl-9-oxo-1,10-diazatricyclo[6.4.0.0^{2,6}]dodeca-2(6),7-dien-10-yl}-3′-(hydroxymethyl)-[3,4′-bipyridin]-5-yl)amino]pyridin-3-yl}-3-methylpiperazin-1-yl]piperidin-1-yl}-2-(2,6-dioxopiperidin-3-yl)isoindole-1,3-dione [Example 12] | > 1000 | 7 | –
C[C@H]1CN(C2CN(c3ccc4c(c3)C(=O)N(C3CCC(=O)NC3=O)C4=O)C2)CCN1c1ccc(Nc2cc(-c3ccnc(N4CCn5c(cc6c5CC(C)(C)C6)C4=O)c3CO)cn(C)c2=O)nc1 (stereo partly drawn) [Example 1, 5-{3-[(3S)-4-{6-[(2′-{4,4-dimethyl-9-oxo-1,10-diazatricyclo[6.4.0.0^{2,6}]dodeca-2(6),7-dien-10-yl}-3′-(hydroxymethyl)-1-methyl-6-oxo-[3,4′-bipyridin]-5-yl)amino]pyridin-3-yl}-3-methylpiperazin-1-yl]azetidin-1-yl}-2-(2,6-dioxopiperidin-3-yl)isoindole-1,3-dione] | 1.16 | 100 | –
C[C@H]1CN(C2CC(C#Cc3ccc4c(c3)C(=O)N(C3CCC(=O)NC3=O)C4=O)C2)CCN1c1ccc(Nc2cc(-c3ccnc(N4CCn5c(cc6c5CC(C)(C)C6)C4=O)c3CO)cn(C)c2=O)nc1 (stereo partly drawn) [Example 3, 5-((3-((S)-4-(6-((2′-(7,7-dimethyl-1-oxo-1,3,4,6,7,8-hexahydro-2H-cyclopenta[4,5]pyrrolo[1,2-a]pyrazin-2-yl)-3′-(hydroxymethyl)-1-methyl-6-oxo-1,6-dihydro-[3,4′-bipyridin]-5-yl)amino)pyridin-3-yl)-3-methylpiperazin-1-yl)cyclobutyl)ethynyl)-2-(2,6-dioxopiperidin-3-yl)isoindoline-1,3-dione] | 2.04 | – | 97
C[C@H]1CN(C2CCN(c3ccc4c(c3)C(=O)N(C3CCC(=O)NC3=O)C4=O)CC2)CCN1c1ccc(Nc2cc(-c3ccnc(N4CCc5c(sc6c5CCCC6)C4=O)c3CO)cn(C)c2=O)nc1 (stereo partly drawn) [Example 9, 2-(2,6-dioxopiperidin-3-yl)-5-{4-[(3S)-4-(6-{[3′-(hydroxymethyl)-1-methyl-6-oxo-2′-{6-oxo-8-thia-5-azatricyclo[7.4.0.0^{2,7}]trideca-1(9),2(7)-dien-5-yl}-[3,4′-bipyridin]-5-yl]amino}pyridin-3-yl)-3-methylpiperazin-1-yl]piperidin-1-yl}isoindole-1,3-dione] | 0.9 | 99 | –
Cc1c(-c2cc(Nc3ccc(N4CCN(C5CCN(c6ccc7c(c6)C(=O)N(C6CCC(=O)NC6=O)C7=O)CC5)C[C@@H]4C)cn3)c(=O)n(C)c2)ccnc1N1CCn2c(cc3c2CC(C)(C)C3)C1=O (stereo partly drawn) [Example 10, 5-{4-[(3S)-4-{6-[(2′-{4,4-dimethyl-9-oxo-1,10-diazatricyclo[6.4.0.0^{2,6}]dodeca-2(6),7-dien-10-yl}-1,3′-dimethyl-6-oxo-[3,4′-bipyridin]-5-yl)amino]pyridin-3-yl}-3-methylpiperazin-1-yl]piperidin-1-yl}-2-(2,6-dioxopiperidin-3-yl)isoindole-1,3-dione] | 4.63 | 99 | –
C[C@H]1CN(C2CCN(c3ccc4c(c3)C(=O)N(C3CCC(=O)NC3=O)C4=O)CC2)CCN1c1ccc(Nc2cc(-c3ccnc(N4CCc5c(sc6c5CCCC6)C4=O)c3CO)cn(C)c2=O)nc1 (stereo partly drawn) [Example 11, 2-(2,6-dioxopiperidin-3-yl)-5-{4-[(3S)-4-(6-{[3′-(hydroxymethyl)-1-methyl-6-oxo-2′-{6-oxo-8-thia-5-azatricyclo[7.4.0.0^{2,7}]trideca-1(9),2(7)-dien-5-yl}-[3,4′-bipyridin]-5-yl]amino}pyridin-3-yl)-3-methylpiperazin-1-yl]piperidin-1-yl}isoindole-1,3-dione] | 9.49 | 99 | –
C[C@H]1CN(C2CCN(c3ccc4c(c3)C(=O)N(C3CCC(=O)NC3=O)C4=O)CC2)CCN1c1ccc(Nc2cc(-c3ccnc(N4CCn5c(cc6c5CC(C)(C)C6)C4=O)c3CO)ccn2)nc1 (stereo partly drawn) [Example 13, 5-{4-[(3S)-4-{6-[(2′-{4,4-dimethyl-9-oxo-1,10-diazatricyclo[6.4.0.0^{2,6}]dodeca-2(6),7-dien-10-yl}-3′-(hydroxymethyl)-[4,4′-bipyridin]-2-yl)amino]pyridin-3-yl}-3-methylpiperazin-1-yl]piperidin-1-yl}-2-(2,6-dioxopiperidin-3-yl)isoindole-1,3-dione] | 4.4 | 98 | –
COc1ncc(-c2ccnc(N3CCn4c(cc5c4CC(C)(C)C5)C3=O)c2CO)cc1Nc1ccc(N2CCN(C3CCN(c4ccc5c(c4)C(=O)N(C4CCC(=O)NC4=O)C5=O)CC3)C[C@@H]2C)cn1 (stereo partly drawn) [Example 14, 5-{4-[(3S)-4-{6-[(2′-{4,4-dimethyl-9-oxo-1,10-diazatricyclo[6.4.0.0^{2,6}]dodeca-2(6),7-dien-10-yl}-3′-(hydroxymethyl)-6-methoxy-[3,4′-bipyridin]-5-yl)amino]pyridin-3-yl}-3-methylpiperazin-1-yl]piperidin-1-yl}-2-(2,6-dioxopiperidin-3-yl)isoindole-1,3-dione] | 1.15 | 94 | –
C[C@H]1CN(C2CCN(c3ccc4c(c3)C(=O)N(C3CCC(=O)NC3=O)C4=O)CC2)CCN1c1ccc(Nc2cc(-c3ccnc(N4CCn5c(cc6c5CC(C)(C)C6)C4=O)c3CO)ncn2)nc1 (stereo partly drawn) [Example 15, 5-{4-[(3S)-4-(6-{[6-(2-{4,4-dimethyl-9-oxo-1,10-diazatricyclo[6.4.0.0^{2,6}]dodeca-2(6),7-dien-10-yl}-3-(hydroxymethyl)pyridin-4-yl)pyrimidin-4-yl]amino}pyridin-3-yl)-3-methylpiperazin-1-yl]piperidin-1-yl}-2-(2,6-dioxopiperidin-3-yl)isoindole-1,3-dione] | 21.7 | 98 | –
C[C@H]1CN([C@@H]2CCN3c4ccc5c(c4OC[C@H]3C2)C(=O)N(C2CCC(=O)NC2=O)C5=O)CCN1c1ccc(Nc2cc(-c3ccnc(N4CCn5c(cc6c5CC(C)(C)C6)C4=O)c3CO)cn(C)c2=O)nc1 (stereo partly drawn) [Example 16, (5aR,7R)-7-((S)-4-(6-((2′-(7,7-dimethyl-1-oxo-1,3,4,6,7,8-hexahydro-2H-cyclopenta[4,5]pyrrolo[1,2-a]pyrazin-2-yl)-3′-(hydroxymethyl)-1-methyl-6-oxo-1,6-dihydro-[3,4′-bipyridin]-5-yl)amino)pyridin-3-yl)-3-methylpiperazin-1-yl)-2-(2,6-dioxopiperidin-3-yl)-5,5a,6,7,8,9-hexahydro-1H-pyrido[1′,2′:4,5][1,4]oxazino[2,3-e]isoindole-1,3(2H)-dione] | 29.6 | – | 97
C[C@H]1CN([C@H]2CCN3c4ccc5c(c4OC[C@H]3C2)C(=O)N(C2CCC(=O)NC2=O)C5=O)CCN1c1ccc(Nc2cc(-c3ccnc(N4CCn5c(cc6c5CC(C)(C)C6)C4=O)c3CO)cn(C)c2=O)nc1.Cl (some centres unmarked) [Example 17, hydrochloride] | 3.58 | – | –
C[C@H]1CN([C@H]2CCN3c4ccc5c(c4OC[C@H]3C2)C(=O)N(C2CCC(=O)NC2=O)C5=O)CCN1c1ccc(Nc2cc(-c3ccnc(N4CCn5c(cc6c5CC(C)(C)C6)C4=O)c3CO)cn(C)c2=O)nc1.Cl (some centres unmarked) [Example 17] | – | 95 | –
C[C@H]1CN([C@H]2CCN3c4ccc5c(c4OC[C@@H]3C2)C(=O)N(C2CCC(=O)NC2=O)C5=O)CCN1c1ccc(Nc2cc(-c3ccnc(N4CCn5c(cc6c5CC(C)(C)C6)C4=O)c3CO)cn(C)c2=O)nc1.Cl (some centres unmarked) [Example 18, hydrochloride] | 22.8 | – | –
